Consider two molecules from publication PMC9837035 (Nature Communications, 2023).

Values joined by “and” are separate entries in the source; they are usually repeats but may differ in a detail not shown here. Equal entries are not always repeated.

Data set [1] deals with BGLT3-knockdown HUDEP-2 cells. Description: RT-qPCR of BGLT3, β- and γ-globin in BGLT3-knockdown HUDEP-2 cells. It is filed as cell-based, human. Conditions: 1 μM, relative to shctrl DMSO = 1, replicate values. The procedure: (§1) Total cellular RNA was prepared using the Tissue Total RNA Mini Kit (FAVORGEN), and cDNA was synthesized using ReverTra Ace Master Mix (TOYOBO). Expression of target genes was analyzed using THUNDERBIRD SYBR qPCR Mix (TOYOBO) on a CFX Connect Real Time System (Bio-Rad). The qPCR data were acquired on CFX Maestro (Bio-Rad). Primers are listed in Supplementary Table 10. GAPDH was used as a reference. Primers were purchased from INTEGRATED DNA TECHNOLOGIES or FASMAC.
Retroviral infection was used as previously described to establish cell lines stably expressing BGLT3 and transfected with the pCX4-pur vector, as well as knockdown cell lines transfected with the pSUPER vector[58]. Briefly, retroviruses were produced by transfecting PLAT-E cells with pCX4-pur-BGLT3 or pSUPER-ctrl, pSUPER-BGLT3, or pSUPER-G9a using 5 μg/mL polyethylenimine MAX (PEI MAX, Polysciences). Two days after transfection, the culture supernatant was collected and filtered through a 0.45-μm filter (Millipore) and used for infection with 8 μg/mL polybrene (Sigma). Forty-eight hours after infection, the infected cells were selected with 0.2 μg/mL puromycin (InvivoGen). The clonal puromycin-resistant cells were established via limiting dilution. The desired clones were confirmed by western blotting or qPCR.
In general terms: Real-time PCR tracks product formation cycle by cycle.

Data set [2] has as its system BGLT3 RNA in HUDEP-2 cells. Put plainly: RT-qPCR of BGLT3 in HUDEP-2 cells. The format is cell-based, human. As to conditions: Sup.Fig.11a; relative to DMSO = 1; replicate values. The method, then: as §1
Data set [3] has as its system H3K9ac at the β-globin locus. Put plainly: ChIP-qPCR with antibody against H3K9ac in HUDEP-2 cells. More on the design: ChIP-qPCR using antibodies against H3K9ac in HUDEP-2 cells treated with SAHA: unit not given here. It is filed as cell-based, human. As to conditions: for ChIP-qPCR using antibodies against H3K9ac in HUDEP-2 cells treated with SAHA: experiments 1-3, a/b replicates. The procedure: A total of 0.5–1 × 10^6 cells were cross-linked with 1% formaldehyde for 10 min at room temperature and the reaction was quenched with 250 mM glycine. Cross-linked cells were then lysed with buffer 1 (15 mM Tris-HCl (pH 7.5), 60 mM KCl, 15 mM NaCl, 5 mM MgCl2, 0.1 mM EGTA, 300 mM sucrose, […], 1 mM phenylmethanesulfonyl fluoride (PMSF), 0.5% NP40) and incubated on ice for 10 min. […] After centrifugation, the pellet was then re-suspended in MNase buffer (50 mM Tris-HCl (pH 7.5), 1 mM CaCl2, 4 mM MgCl2, 320 mM sucrose, 1 mM PMSF) and digested with 100 U of micrococcal nuclease (Takara) at 37 °C for 15 min. […] Beads were washed sequentially once with the following buffers: wash buffer A (50 mM Tris-HCl (pH 7.5), 75 mM NaCl, 10 mM EDTA, 0.01% NP40), wash buffer B (50 mM Tris-HCl (pH 7.5), 100 mM NaCl, 10 mM EDTA, 0.01% NP40), wash buffer C (50 mM Tris-HCl (pH 7.5), 175 mM NaCl, 10 mM EDTA, 0.01% NP40). After treatment with proteinase K in buffer 4 (20 mM Tris-HCl (pH 8.0), 10 mM EDTA, 400 mM NaCl, 0.5% SDS) at 56 °C overnight, DNA was purified using the FastGene Gel/PCR Extraction Kit (Nippon Genetics). The samples were analyzed by qPCR. Primers are listed in Supplementary Table 10. ChIP-seq experiments were performed by GENEWIZ. Tracks were visualized using the integrative genome viewer. ChIP-seq analysis were analyzed Cutadapt (V1.9.1) for QC, FastQC (V0.10.1) for QC assessment, Bowtie (V2.1.0) for mapping, strand cross-correlation (SCC) for ChIP quality assessment, MACS2 for peak calling, and R package ChIPpeakAnno for Peak annotated.

The test system of data set [4] is rat myoblast cell line H9c2. Description: Cell viability assay (WST-8), H9c2. Conditions: control (0 μM) = 100. The format is cell-based. The procedure:
(§2) A WST-8 (2-(2-methoxy-4-nitrophenyl)-3-(4-nitrophenyl)-5-(2,4-disulfophenyl)-2H-tetrazolium) assay using a Cell Counting Kit-8 (DOJINDO) was performed to measure cell viability using an EnSpire microplate reader (PerkinElmer).

The subject of the next data set is mice. Put plainly: Mouse acute toxicity assay, survival. Conditions: intravenous, 2-week observation. The format is in vivo. The procedure: All animal studies were approved by the Institutional Committee for Animal Experiments of the Institute of Microbial Chemistry, and were performed in accordance with relevant guidelines and regulations to minimize animal suffering. Four-week-old female ICR mice were purchased from Charles River Breeding Laboratories (Yokohama, Japan) and maintained in a specific pathogen-free barrier facility. […] Samples were dissolved in saline containing 10% DMSO and 1% Tween 80 and injected intravenously into mice.

The nature of data set [5]: Cell viability assay (WST-8), HUDEP-2. Conditions: human, HUDEP-2 cells, control (0 μM) = 100. The format is cell-based, human. The method, then: as §2
Background: Tetrazolium assays rely on reduction of a dye to a coloured formazan, in cell work by metabolically active cells.

For a further data set, the system named is HUDEP-2 cells. Put plainly: Cell viability assay (WST-8), HUDEP-2. It is filed as cell-based, human. Conditions: control (0 μM) = 100. The method, then:
as §2

Broadly, the viability is the share of living cells, or the viability signal relative to a control.

In the case of `O=C(CCCCCCC(=O)Nc1ccccc1)NO` [SAHA], the “β-globin gene in BGLT3-knockdown HUDEP-2 cells” value in data set [1] (shBGLT3 #1) is 2.301 and 2.189 and 2.546; in data set [1] (shBGLT3 #2), 1.2128 and 1.2413 and 1.0394; in data set [1] (shBGLT3 #3) it was 2.448 and 2.303 and 2.192; in data set [1] (shctrl), 3.928 and 4.654 and 3.722. Also, the “γ-globin gene in BGLT3-knockdown HUDEP-2 cells” value in data set [1] (shBGLT3 #1) is 4.852 and 4.747 and 4.193; in data set [1] (shBGLT3 #2), 3.094 and 3.659 and 2.955; in data set [1] (shBGLT3 #3), 2.0995 and 2.031 and 1.807; in data set [1] (shctrl), 13.6262 and 15.6907 and 11.2259. For the same molecule, in data set [2], the “BGLT3 expression in HUDEP-2 cells” value is 4.739 and 6.125 and 5.109. Besides, the “ChIP-qPCR using antibodies against H3K9ac in HUDEP-2 cells treated with SAHA” value in data set [3] (BGLT3 locus) was 4.594 and 4.901 and 3.587 and 4.136 and 7.628 and 5.8678; in data set [3] (HS1), 3.554 and 4.79 and 1.956 and 6.9673 and 5.354; in data set [3] (HS2), 3.581 and 3.815 and 1.139 and 1.6187 and 3.866 and 3.138; in data set [3] (HS3), 2.6549 and 2.681 and 1.467 and 2.973 and 2.979; in data set [3] (HS4) it was 3.747 and 4.945 and 3.035 and 2.8654 and 4.964 and 4.658; in data set [3] (β-globin promoter), 1.524 and 1.253 and 1.188 and 2.806 and 2.767. The “ChIP-qPCR using antibodies against H3K9ac in HUDEP-2 cells treated with SAHA” value in data set [3] (γ-globin promoter) is 0.7378 and 1.324 and 1.03 and 1.066 and 1.991 and 1.048; in data set [3] (δ-globin promoter) it was 4.601 and 5.375 and 3.661 and 4.076 and 5.898 and 5.487. Also, the “histone H3 acetylation at the β-globin gene locus” value in data set [3] (HUDEP-2, 1 μM, 1 day) is “increased”.
`COc1cc2c(NC3CCN(C(C)C)CC3)nc(N3CCC(F)(F)CC3)nc2cc1OCCCN1CCCC1` [UNC0642]: the “cell viability in H9c2 cells” value in data set [4] (0.039 μM) was 113.444 and 97.977 and 82.062; in data set [4] (0.156 μM) it was 119.033 and 94.058 and 85.452; in data set [4] (0.625 μM), 120.242 and 96.207 and 89.831; in data set [4] (2.5 μM) it was 126.737 and 89.381 and 103.107; in data set [4] (10.0 μM) it was 69.940 and 117.826 and 118.079. The “Number of alive mice” value in the data set on mice (1.5625 mg/kg) was 3/3; in the data set with mice (3.125 mg/kg), 3/3; in the data set on mice (6.25 mg/kg), 2/3; with mice (12.5 mg/kg) it was 1/3; with mice (25 mg/kg), 0/3. Moreover, the viability at 0.00457247 μM in data set [5] (0.00457247 μM) stood at 97.1%. Besides, the viability at 0.0137174 μM in data set [5] (0.0137174 μM) stood at 87.4%. For the same molecule, the viability at 0.0411523 μM in data set [5] (0.0411523 μM) is 86.5%. In data set [5] (0.123457 μM), this molecule yielded a viability at 0.123457 μM of 92.1%. For the same molecule, the viability at 0.37037 μM in data set [5] (0.37037 μM) came out at 85.8%. Besides, the viability at 1.11111 μM in data set [5] (1.11111 μM) is 85.2%. Besides, the viability at 3.33333 μM in data set [5] (3.33333 μM) was 54.8%. In data set [5] (10 μM), this molecule came in with a viability at 10 μM of 8.77%. The “cell viability in HUDEP-2 cells” value was 98.5098 and 95.7411 in the data set with HUDEP-2 cells (0.00457247 μM); 90.6667 and 93.356 in the data set with HUDEP-2 cells (0.0137174 μM); 91.9216 and 91.6525 in the data set on HUDEP-2 cells (0.0411523 μM); 105.098 and 92.3339 in the data set with HUDEP-2 cells (0.123457 μM); 89.4118 and 91.9932 in the data set with HUDEP-2 cells (0.37037 μM); 93.8039 and 89.2675 with HUDEP-2 cells (1.11111 μM). For the same molecule, the “cell viability in HUDEP-2 cells” value is 61.4902 and 56.2181 with HUDEP-2 cells (3.33333 μM); 12.549 and 12.2658 in the data set on HUDEP-2 cells (10 μM).
